In ChEMBL document CHEMBL1201862, “PubChem BioAssay data set” (2004):
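48-hour exposure; five concentrations; linearly interpolated endpoints. GI50: concentration for 50% inhibition of growth.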 Calls of active or inactive are those of the source. No stated cut-off is given here; in the data, active = GI50 up to about 1.1 µM and inactive = higher.

Key:
Test in all cases: NCI anticancer screen, dose series, 48 h
UACC-257 = system: UACC-257
SN12C = system: SN12C
MDA-MB-435 = system: MDA-MB-435
HOP-62 = system: HOP-62
DU-145 = system: DU-145
NCI-H460 = system: NCI-H460
SNB-75 = system: SNB-75
SF-295 = system: SF-295
TK-10 = system: TK-10
HCT-15 = system: HCT-15
T47D = system: T47D
NCI-H522 = system: NCI-H522
CCRF-CEM = system: CCRF-CEM
Malme-3M = system: Malme-3M
Hs-578T = system: Hs-578T
A498 = system: A498
MOLT-4 = system: MOLT-4
MDA-N = system: MDA-N
SK-OV-3 = system: SK-OV-3
ACHN = system: ACHN
SK-MEL-5 = system: SK-MEL-5
BT-549 = system: BT-549
MCF7 = system: MCF7
COLO 205 = system: COLO 205
KM12 = system: KM12
SW-620 = system: SW-620
SK-MEL-28 = system: SK-MEL-28
OVCAR-4 = system: OVCAR-4
UO-31 = system: UO-31
OVCAR-3 = system: OVCAR-3
786-0 = system: 786-0
HCT-116 = system: HCT-116
IGROV-1 = system: IGROV-1
NCI-H226 = system: NCI-H226
SK-MEL-2 = system: SK-MEL-2
SF-268 = system: SF-268
A549 = system: A549
HOP-92 = system: HOP-92
HL-60 = system: HL-60
SF-539 = system: SF-539
UACC-62 = system: UACC-62
RPMI-8226 = system: RPMI-8226
NCI/ADR-RES = system: NCI/ADR-RES
SR = system: SR
PC-3 = system: PC-3
M14 = system: M14
OVCAR-8 = system: OVCAR-8
HT-29 = system: HT-29
U-251 = system: U-251
CAKI-1 = system: CAKI-1
RXF 393 = system: RXF 393
K562 = system: K562
MDA-MB-231 = system: MDA-MB-231
SNB-19 = system: SNB-19
EKVX = system: EKVX
OVCAR-5 = system: OVCAR-5
LOX IMVI = system: LOX IMVI
NCI-H23 = system: NCI-H23

For `c1ccc(CNC2CC(NCc3ccccn3)CC(NCc3ccccn3)C2)nc1` (stereo not drawn), the GI50 (UACC-257) was 4.53 µM (inactive), the GI50 (SN12C) was 5.22 µM (inactive) and the GI50 (MDA-MB-435) was 4.5 µM (inactive). The GI50 (HOP-62) was 6.89 µM (inactive), the GI50 (DU-145) was 4.73 µM (inactive) and the GI50 (NCI-H460) was 5.15 µM (inactive). The GI50 (SNB-75) was 4.27 µM (inactive), the GI50 (SF-295) was 6.21 µM (inactive) and the GI50 (TK-10) was 3.45 µM (inactive). The GI50 (HCT-15) was 4.72 µM, the GI50 (T47D) was 5.66 µM (inactive) and the GI50 (NCI-H522) was 4.6 µM (inactive). For the same molecule, the GI50 (CCRF-CEM) was 2.61 µM (inactive), the GI50 (Malme-3M) was 3.52 µM (inactive) and the GI50 (Hs-578T) was 7.66 µM (inactive). The GI50 (A498) was 3.05 µM (inactive), the GI50 (MOLT-4) was 3.39 µM (inactive) and the GI50 (MDA-N) was 4.47 µM (inactive). For the same molecule, the GI50 (SK-OV-3) was 4.46 µM (inactive), the GI50 (ACHN) was 9.51 µM (inactive) and the GI50 (SK-MEL-5) was 3.54 µM (inactive). For the same molecule, the GI50 (BT-549) was 5.27 µM (inactive), the GI50 (MCF7) was 3.5 µM (inactive) and the GI50 (COLO 205) was 1.09 µM (active). The GI50 (KM12) was 2.7 µM (inactive), the GI50 (SW-620) was 6.61 µM (inactive) and the GI50 (SK-MEL-28) was 3.08 µM (inactive). For the same molecule, the GI50 (OVCAR-4) was 4.13 µM (inactive), the GI50 (UO-31) was > 25 µM (inactive) and the GI50 (OVCAR-3) was 4.08 µM (inactive). The GI50 (786-0) was 2.38 µM (inactive), the GI50 (HCT-116) was 3.1 µM (inactive) and the GI50 (IGROV-1) was 4.38 µM (inactive). The GI50 (NCI-H226) was 3.32 µM (inactive), the GI50 (SK-MEL-2) was 5.11 µM (inactive) and the GI50 (SF-268) was 5 µM (inactive). The GI50 (A549) was 2.61 µM (inactive) and the GI50 (HOP-92) was 4.67 µM (inactive).

`CCOC(=O)c1nc2ccc(C(F)(F)F)cc2nc1NCc1ccc(OC)c(OC)c1` was tested, and the GI50 (HL-60) was 22.8 µM (inactive), the GI50 (SF-539) was > 100 µM (inactive) and the GI50 (UACC-62) was 73.6 µM (inactive). The GI50 (UACC-257) was 61.4 µM (inactive), the GI50 (RPMI-8226) was 86.1 µM (inactive) and the GI50 (NCI/ADR-RES) was 37 µM (inactive). The GI50 (MDA-MB-435) was 50.1 µM (inactive), the GI50 (HOP-62) was 58.3 µM (inactive) and the GI50 (SR) was 29.6 µM (inactive). For the same molecule, the GI50 (NCI-H460) was 35.6 µM (inactive), the GI50 (SNB-75) was 21.9 µM (inactive) and the GI50 (SF-295) was 47.6 µM (inactive). The GI50 (TK-10) was > 100 µM (inactive), the GI50 (HCT-15) was 69 µM and the GI50 (T47D) was 48.1 µM (inactive). The GI50 (NCI-H522) was 30.6 µM (inactive), the GI50 (PC-3) was 35.5 µM (inactive) and the GI50 (CCRF-CEM) was 65.6 µM (inactive). The GI50 (Malme-3M) was 97.7 µM (inactive), the GI50 (Hs-578T) was 42.8 µM (inactive) and the GI50 (A498) was 58.2 µM (inactive). For the same molecule, the GI50 (M14) was 67.8 µM (inactive), the GI50 (MOLT-4) was 34.9 µM (inactive) and the GI50 (MDA-N) was 51.3 µM (inactive). The GI50 (SK-OV-3) was > 100 µM (inactive), the GI50 (ACHN) was 53.1 µM (inactive) and the GI50 (SK-MEL-5) was 37.8 µM (inactive). For the same molecule, the GI50 (BT-549) was 51.3 µM (inactive), the GI50 (MCF7) was 37.7 µM (inactive) and the GI50 (OVCAR-8) was 80.4 µM (inactive). For the same molecule, the GI50 (COLO 205) was 35.8 µM (inactive), the GI50 (KM12) was 55.5 µM (inactive) and the GI50 (HT-29) was 32.1 µM (inactive). The GI50 (SW-620) was 49.7 µM (inactive), the GI50 (U-251) was 41.8 µM (inactive) and the GI50 (OVCAR-4) was 73.5 µM (inactive). The GI50 (CAKI-1) was > 100 µM (inactive), the GI50 (RXF 393) was 43.6 µM (inactive) and the GI50 (UO-31) was 60.7 µM (inactive). The GI50 (OVCAR-3) was 45.8 µM (inactive), the GI50 (K562) was 49.5 µM (inactive) and the GI50 (MDA-MB-231) was > 100 µM (inactive). The GI50 (SNB-19) was 94.2 µM (inactive), the GI50 (EKVX) was 44.8 µM (inactive) and the GI50 (OVCAR-5) was > 100 µM (inactive). For the same molecule, the GI50 (786-0) was > 100 µM (inactive), the GI50 (LOX IMVI) was 36.1 µM (inactive) and the GI50 (HCT-116) was 39.2 µM (inactive). For the same molecule, the GI50 (NCI-H23) was 72.8 µM (inactive), the GI50 (IGROV-1) was 71.1 µM (inactive) and the GI50 (NCI-H226) was 63.5 µM (inactive). The GI50 (SK-MEL-2) was 24.2 µM (inactive), the GI50 (SF-268) was 83.9 µM (inactive) and the GI50 (A549) was 50.2 µM (inactive). The GI50 (HOP-92) was 29.7 µM (inactive).
